Reference: patent US20260200982A1, “HER RECEPTOR DERIVED PEPTIDES AND METHODS OF USE THEREOF” (Ramot at Tel-Aviv University Ltd., priority 2022, published 2026)
Bridges are numbered along the chain shown (N, C = ends). Primed or numbered codes have the meaning given here. Where no end group is shown, it is not given here. [ ]: non-standard residue; d: D form. The star is where a group is joined. FITC′ = fluorescein isothiocyanate; Myristoyl = CCCCCCCCCCCCCC(=O)*; S5 = C=CCCC[C@](C)(N)C(=O)O

Legend:
Format in all cases: cell-based, human
[1] = test system: non-cancerous (MCF10A) breast cell line; test: Methylene blue viability assay, MCF10A; settings: 72 hours, 10 μM peptide; FIGS. 6A-B
Description: (§1) Cell lines—Human breast cancer cell lines SKBR3 [Peles E et al. EMBO J. (1993) 12(3):961-71] and MCF7 [Faigenbloom L et al., Mol Syst Biol. (2015) 11(12):845] and human glioblastoma U87 [Goldberg L et al. Cancer Res. (2006) 66(24):11709-17] cell line, as well as Rat-1 fibroblast cells and H-Ras-transformed Rat-1 cells (EJ cells) [Marom M et al. J Biol Chem. (1995) 270(38):22263-70] and human Panc-1 and MIA PaCa-2 pancreatic cell lines (Rak R et al. Oncoscience. 2014 1(1):39-48; Weisz B et al. Oncogene (1999) 18, 2579±2588) were all grown in Dulbecco's modified Eagle's medium (DMEM; Biological Industries, Beithaemek, Israel). Human colorectal cancer cell lines DLD-1 (ATTC Cat No. CCL-221), HCT-116 (ATTC Cat No. CCL-247) and LNCaP prostate cancer cells were grown in Roswell Park Memorial Institute 1640 (RPMI 1640) medium and McCoy's 5A media, respectively (Sigma-Aldrich). All media were supplemented with antibiotics and 10% heat-inactivated fetal bovine serum (FBS; Gibco). Human breast cell line MCF10A [Bott A et al. Oncotarget. (2017) 8(27):43897-43914] was grown in Dulbeco's Modified Eagle's Medium/Nutrient Mixture F-12 HAM medium (DMEM F-12 HAM; Sigma-Aldrich), supplemented with antibiotics, 5% inactivated horse serum (HS; Invitrogen), 2 mM L-glutamine (Biological Industries, Beithaemek, Israel), 0.1 μg/ml cholera toxin (Sigma-Aldrich), 0.5 μg/ml hydrocortisone (Sigma-Aldrich), 10 μg/ml insulin (Biological Industries, Beithaemek, Israel) and 2 ng/ml EGF (R&D Systems). Cells were incubated at 37° C. in 5% CO2 in air, and the medium was changed every 3-4 days. Cells were passaged in trypsin/disodium ethylenediaminetetraacetic acid (Biological Industries, Beithaemek, Israel) when confluency reached 70%. One day prior to treatment the cells were plated at ~50% confluency in a medium supplemented with 10% FBS or 5% HS, accordingly.
(§2) Methylene blue viability assay—Cells were plated in 96-wells plates at cell densities of 1.5×10^3 (EJ, DLD-1), 3×10^3 (Rat-1, HCT-116, U87), 5×10^3 (SKBR3, MCF7) and 6×10^3 (MCF10A) cells/well. On the following day, cells were treated as indicated, and grown for 72 hours. Cell number determination was performed as described previously. IC-50 values were calculated using a non-linear regression model (logarithmic inhibitor vs. normalized response-variable slope) with the GraphPad Prism 6 software.

MCF7 breast cancer cells = settings: 72 hours; for MCF7 cell viability: 10 μM peptide, FIGS. 6A-B
Description: as §1
as §2, with “On the following day, cells were treated as indicated, and grown for 72 hours.” left out

[2] = test system: SKBR3 breast cancer cells; settings: 80 μM peptide for 72 hours; FIG. 4A
Description: as §1
as §2, with “On the following day, cells were treated as indicated, and grown for 72 hours.” left out

| Substance | viability of non-cancerous MCF10 breast cells [1] | MCF7 cell viability (MCF7 breast cancer cells) | effect of FITC-conjugation on cell viability activity compared to myr-NLS (MCF7 breast cancer cells; MCF7, FIG. 4E) | viability of SKBR3 breast cancer cells [2] |
| --- | --- | --- | --- | --- |
| Myr-RRRHIVR(S5)RTL(S5)RLL (Myristoyl-RRRHIVR[S5]RTL[S5]RLL; staple 8-12; not fully specified; printed as Myr-RRRHIVR(S5)RTL(S5)RLL) [mN8-12] | decreased viability | decreased viability |  |  |
| Myr-RRRHIVRK(FITC)RTLRRLL (Myristoyl-RRRHIVRK(FITC′)RTLRRLL) [myr-NLS-FITC] |  |  | did not affect myr-NLS activity |  |
| Myr-RRRHIVRKRT(S5)RRL(S5) (Myristoyl-RRRHIVRKRT[S5]RRL[S5]; staple 11-15) [mN11-15] | had no effect | decreased MCF7 cell viability |  |  |
| RRRRRRRRHIVRKRTLRRLL (R-NLS peptide) |  |  |  | significantly reduced viability |
